What was measured:
Conditions in all cases: 72 h
HepG2 [1] = assay: cell viability relative to DMSO; higher = less toxic
Calu-3 [2] = assay: as above
Vero E6 [3] = assay: as above
Caco-2 [4] = assay: as above
U2OS [5] = assay: as above
HepG2 [6] = assay: drug sensitivity score (DSS) for viability; higher = more toxic; extreme values may be limits of the assay
Calu-3 [7] = assay: as above
Vero E6 [8] = assay: as above
Caco-2 [9] = assay: as above
U2OS [10] = assay: as above
HepG2 [11] = assay: relative viability EC50 (midpoint between 100% and the lowest measured viability); higher = less toxic
Calu-3 [12] = assay: as above
Vero E6 [13] = assay: as above
U2OS [14] = assay: as above

Compound | cell viability (HepG2 [1]; 1 nM) | cell viability (HepG2 [1]; 10 nM) | cell viability (HepG2 [1]; 100 nM) | cell viability (HepG2 [1]; 1000 nM) | cell viability (HepG2 [1]; 10000 nM) | cell viability (Calu-3 [2]; 1 nM) | cell viability (Calu-3 [2]; 10 nM) | cell viability (Calu-3 [2]; 100 nM) | cell viability (Calu-3 [2]; 1000 nM) | cell viability (Calu-3 [2]; 10000 nM) | cell viability (Vero E6 [3]; 1 nM) | cell viability (Vero E6 [3]; 10 nM) | cell viability (Vero E6 [3]; 100 nM) | cell viability (Vero E6 [3]; 1000 nM) | cell viability (Vero E6 [3]; 10000 nM) | cell viability (Caco-2 [4]; 1 nM) | cell viability (Caco-2 [4]; 10 nM) | cell viability (Caco-2 [4]; 100 nM) | cell viability (Caco-2 [4]; 1000 nM) | cell viability (Caco-2 [4]; 10000 nM) | cell viability (U2OS [5]; 1 nM) | cell viability (U2OS [5]; 10 nM) | cell viability (U2OS [5]; 100 nM) | cell viability (U2OS [5]; 1000 nM) | cell viability (U2OS [5]; 10000 nM) | drug sensitivity score (HepG2 [6]) | drug sensitivity score (Calu-3 [7]) | drug sensitivity score (Vero E6 [8]) | drug sensitivity score (Caco-2 [9]) | drug sensitivity score (U2OS [10]) | relative viability EC50 (HepG2 [11]) | relative viability EC50 (Calu-3 [12]) | relative viability EC50 (Vero E6 [13]) | relative viability EC50 (U2OS [14])
CC(C)=CCC/C(C)=C/CNCCNC1C2CC3CC(C2)CC1C3 (centres undefined) [SQ-109] | 94.3% | 103% | 110% | 103% | 86.3% | 94.2% | 111% | 106% | 106% | 94% | 103% | 95.8% | 105% | 102% | 88.8% | 92.5% | 107% | 81.7% | 90.6% | 74.2% | 102% | 104% | 99.5% | 103% | 93.6% | 0.1 | 0 | 0 | 2.4 | 0 | > 10000 nM | > 10 µM | > 10 µM | > 10000 nM
CC(C)(C)Nc1nc(Nc2ccc(C(N)=O)cc2)cc(N)c1C#N [TC-Mps1-12] | 91.7% | 89.8% | 88.4% | 66.2% | 39.5% | 97.5% | 103% | 104% | 109% | 100% | 104% | 102% | 101% | 98.2% | 61.7% | 94.9% | 101% | 102% | 95.9% | 72.1% | 93.6% | 96.6% | 94.8% | 95% | 62.9% | 8 | 0 | 2.1 | 1.8 | 2.6 | 555 nM | > 10 µM |  | 
COc1ccc(C(=O)CC2(O)C(=O)Nc3c(Cl)ccc(Cl)c32)cc1 (centres undefined) [YK-4-279] | 106% | 108% | 99.1% | 94.5% | 34.9% | 103% | 93.2% | 101% | 106% | 76.4% | 108% | 102% | 102% | 102% | 48.1% | 105% | 93.1% | 103% | 93.3% | 63.8% | 104% | 97.8% | 106% | 95.6% | 45.7% | 4.4 | 0.6 | 2.6 | 2.8 | 3.6 | 2470 nM | > 10 µM | 3.34 µM | 2500 nM
S=C(NCc1ccc2c(c1)OCO2)N1CCN(c2ncnc3c2oc2ccccc23)CC1 [amuvatinib] | 100% | 101% | 96.2% | 84% | 19% | 98.4% | 92.7% | 101% | 94.1% | 78.7% | 102% | 104% | 97.9% | 90.4% | 67.6% | 95.2% | 90.6% | 97.1% | 84.5% | 68.3% | 104% | 96.6% | 100% | 95% | 65.1% | 7.1 | 1.4 | 2.8 | 2.8 | 2.5 | 1750 nM | > 10 µM |  | 
CCOC(=O)Nc1cc(-c2ccc(C)c(NS(C)(=O)=O)c2)nn2c(C)nnc12 [bromosporine] | 101% | 98.9% | 102% | 60.8% | 19.5% | 96.8% | 88% | 80.4% | 76.3% | 37.8% | 95.7% | 101% | 94.7% | 55.5% | 6.3% | 95.5% | 101% | 104% | 81.3% | 55.8% | 96.2% | 99.2% | 91.5% | 79.2% | 18.5% | 9.4 | 7.9 | 10.4 | 4.8 | 7.6 | 1020 nM | 0.624 µM | 1.05 µM | 1570 nM
CCCCN(CCCC)CCCOC(=O)c1ccc(N)cc1 [butacaine] | 108% | 93% | 102% | 85.2% | 95.7% | 95.9% | 95.3% | 106% | 86.8% | 94.9% | 102% | 90.8% | 99.1% | 92.9% | 92.7% | 92.7% | 98.5% | 91.3% | 128% | 65.7% | 92.5% | 99.3% | 95.1% | 102% | 101% | 0 | 0 | 0 | 0.9 | 0 | > 10000 nM | > 10 µM | > 10 µM | > 10000 nM
CN1CCN(C(c2ccccc2)c2ccc(Cl)cc2)CC1 (centres undefined) [chlorcyclizine] | 97.6% | 90.4% | 95.8% | 91.7% | 87.9% | 102% | 103% | 96.4% | 98.3% | 88.1% | 105% | 97.3% | 103% | 101% | 92.6% | 107% | 104% | 79.4% | 105% | 71.7% | 93.8% | 103% | 99% | 106% | 88.8% | 0 | 0.1 | 0 | 0.9 | 0 | > 10000 nM | > 10 µM | > 10 µM | > 10000 nM

Reference: the supplement of paper PMC13380429
